Test system: 885724-159-R-J1-PDC complex spheroid viability
Experiment: Anticancer human tumor 885724-159-R-J1-PDC patient-derived pancreatic adenocarcinoma cell line growth inhibition [POLQ]
Conditions: for IC50: curve of first compound; for viability, T/C: stronger effect = lower value
Method in brief: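 PDC + HUVEC + MSC complex spheroids; POLQ inhibitors ± partner drugs; top conc. at/near clinical Cmax, else 10 microM (SN-38 1 microM), half-log dilutions; 37 degrees C, 5% CO2.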

[1] = second compound 0.0316 µM, first compound 0.0316 µM
[2] = second compound 0.0316 µM, first compound 0.1 µM
[3] = second compound 0.0316 µM, first compound 0.316 µM
[4] = second compound 0.0316 µM, first compound 1 µM
[5] = second compound 0.0316 µM, first compound 3.16 µM
[6] = second compound 0.0316 µM, first compound 10 µM
[7] = second compound 0.1 µM, first compound 0.0316 µM
[8] = second compound 0.1 µM, first compound 0.1 µM
[9] = second compound 0.1 µM, first compound 0.316 µM
[10] = second compound 0.1 µM, first compound 1 µM
[11] = second compound 0.1 µM, first compound 3.16 µM
[12] = second compound 0.1 µM, first compound 10 µM
[13] = second compound 0.316 µM, first compound 0.0316 µM
[14] = second compound 0.316 µM, first compound 0.1 µM
[15] = second compound 0.316 µM, first compound 0.316 µM
[16] = second compound 0.316 µM, first compound 1 µM
[17] = second compound 0.316 µM, first compound 3.16 µM
[18] = second compound 0.316 µM, first compound 10 µM
[19] = second compound 1 µM, first compound 0.0316 µM
[20] = second compound 1 µM, first compound 0.1 µM
[21] = second compound 1 µM, first compound 0.316 µM
[22] = second compound 1 µM, first compound 1 µM
[23] = second compound 1 µM, first compound 3.16 µM
[24] = second compound 1 µM, first compound 10 µM
[25] = second compound 3.16 µM, first compound 0.0316 µM
[26] = second compound 3.16 µM, first compound 0.1 µM
[27] = second compound 3.16 µM, first compound 0.316 µM
[28] = second compound 3.16 µM, first compound 1 µM
[29] = second compound 3.16 µM, first compound 3.16 µM
[30] = second compound 3.16 µM, first compound 10 µM
[31] = second compound 10 µM, first compound 0.0316 µM
[32] = second compound 10 µM, first compound 0.1 µM
[33] = second compound 10 µM, first compound 0.316 µM
[34] = second compound 10 µM, first compound 1 µM
[35] = second compound 10 µM, first compound 3.16 µM
[36] = second compound 10 µM, first compound 10 µM
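Also: spheroids exposed to compounds for 7 days.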

## CCc1cc2c(N3CCc4c(cc(Cn5ccnc5)cc4-c4cn(C)nc4C(F)(F)F)C3=O)cc(C)nc2c(OC)n1 + Nc1ccc(C#CCN(C(=O)Cc2ncc(C(F)(F)F)cc2C(F)(F)F)c2ccc(F)cc2)nn1
Second compound 0.0316 µM
  IC50: > 10 µM
Second compound 0.1 µM
  IC50: > 10 µM
Second compound 0.316 µM
  IC50: > 10 µM
Second compound 1 µM
  IC50: > 10 µM
Second compound 3.16 µM
  IC50: > 10 µM
Second compound 10 µM
  IC50: > 10 µM
[1]
  viability, T/C: 84.1%
[2]
  viability, T/C: 82.4%
[3]
  viability, T/C: 79.4%
[4]
  viability, T/C: 79.3%
[5]
  viability, T/C: 75.8%
[6]
  viability, T/C: 69.2%
[7]
  viability, T/C: 91.8%
[8]
  viability, T/C: 87.3%
[9]
  viability, T/C: 75.8%
[10]
  viability, T/C: 77.1%
[11]
  viability, T/C: 70.9%
[12]
  viability, T/C: 60.3%
[13]
  viability, T/C: 86.7%
[14]
  viability, T/C: 84.8%
[15]
  viability, T/C: 82.2%
[16]
  viability, T/C: 85.2%
[17]
  viability, T/C: 69.5%
[18]
  viability, T/C: 69.7%
[19]
  viability, T/C: 89%
[20]
  viability, T/C: 90.9%
[21]
  viability, T/C: 78.3%
[22]
  viability, T/C: 71.8%
[23]
  viability, T/C: 73.1%
[24]
  viability, T/C: 67.2%
[25]
  viability, T/C: 79.3%
[26]
  viability, T/C: 72%
[27]
  viability, T/C: 78.3%
[28]
  viability, T/C: 85.4%
[29]
  viability, T/C: 75.2%
[30]
  viability, T/C: 69.8%
[31]
  viability, T/C: 88%
[32]
  viability, T/C: 88%
[33]
  viability, T/C: 85.2%
[34]
  viability, T/C: 76.8%
[35]
  viability, T/C: 89.9%
[36]
  viability, T/C: 73%

## CCc1cc2c(N3CCc4c(cc(Cn5ccnc5)cc4-c4cn(C)nc4C(F)(F)F)C3=O)ccnc2c(OC)n1 + Nc1ccc(C#CCN(C(=O)Cc2ncc(C(F)(F)F)cc2C(F)(F)F)c2ccc(F)cc2)nn1
Second compound 0.0316 µM
  IC50: > 10 µM
Second compound 0.1 µM
  IC50: > 10 µM
Second compound 0.316 µM
  IC50: > 10 µM
Second compound 1 µM
  IC50: > 10 µM
Second compound 3.16 µM
  IC50: > 10 µM
Second compound 10 µM
  IC50: > 10 µM
[1]
  viability, T/C: 81.6%
[2]
  viability, T/C: 85.8%
[3]
  viability, T/C: 90.6%
[4]
  viability, T/C: 90%
[5]
  viability, T/C: 73.5%
[6]
  viability, T/C: 64.4%
[7]
  viability, T/C: 78.7%
[8]
  viability, T/C: 81.9%
[9]
  viability, T/C: 79.6%
[10]
  viability, T/C: 84.7%
[11]
  viability, T/C: 86.6%
[12]
  viability, T/C: 67.6%
[13]
  viability, T/C: 86.5%
[14]
  viability, T/C: 86.6%
[15]
  viability, T/C: 85.7%
[16]
  viability, T/C: 80%
[17]
  viability, T/C: 83.8%
[18]
  viability, T/C: 69.8%
[19]
  viability, T/C: 88.9%
[20]
  viability, T/C: 74.2%
[21]
  viability, T/C: 78.5%
[22]
  viability, T/C: 80.8%
[23]
  viability, T/C: 80.1%
[24]
  viability, T/C: 70.8%
[25]
  viability, T/C: 85.6%
[26]
  viability, T/C: 74.2%
[27]
  viability, T/C: 77%
[28]
  viability, T/C: 81.4%
[29]
  viability, T/C: 79.5%
[30]
  viability, T/C: 68.1%
[31]
  viability, T/C: 90.7%
[32]
  viability, T/C: 80.7%
[33]
  viability, T/C: 82.2%
[34]
  viability, T/C: 83.8%
[35]
  viability, T/C: 81.5%
[36]
  viability, T/C: 68.3%

## O=C(Nc1ccc(O)c(NS(=O)(=O)c2ccc(F)cc2)c1)c1ccc(-c2ccccc2)cc1 + Nc1ccc(C#CCN(C(=O)Cc2ncc(C(F)(F)F)cc2C(F)(F)F)c2ccc(F)cc2)nn1
Second compound 0.0316 µM
  IC50: > 10 µM
Second compound 0.1 µM
  IC50: > 10 µM
Second compound 0.316 µM
  IC50: > 10 µM
Second compound 1 µM
  IC50: > 10 µM
Second compound 3.16 µM
  IC50: > 10 µM
Second compound 10 µM
  IC50: > 10 µM
[1]
  viability, T/C: 97.8%
[2]
  viability, T/C: 94.2%
[3]
  viability, T/C: 97.4%
[4]
  viability, T/C: 97.6%
[5]
  viability, T/C: 110%
[6]
  viability, T/C: 93.3%
[7]
  viability, T/C: 102%
[8]
  viability, T/C: 95.3%
[9]
  viability, T/C: 112%
[10]
  viability, T/C: 101%
[11]
  viability, T/C: 111%
[12]
  viability, T/C: 96.4%
[13]
  viability, T/C: 103%
[14]
  viability, T/C: 93.2%
[15]
  viability, T/C: 94.7%
[16]
  viability, T/C: 103%
[17]
  viability, T/C: 110%
[18]
  viability, T/C: 93.4%
[19]
  viability, T/C: 110%
[20]
  viability, T/C: 99.4%
[21]
  viability, T/C: 78.1%
[22]
  viability, T/C: 98.3%
[23]
  viability, T/C: 101%
[24]
  viability, T/C: 92.1%
[25]
  viability, T/C: 97.1%
[26]
  viability, T/C: 91%
[27]
  viability, T/C: 87.3%
[28]
  viability, T/C: 104%
[29]
  viability, T/C: 108%
[30]
  viability, T/C: 95.7%
[31]
  viability, T/C: 91.2%
[32]
  viability, T/C: 98.4%
[33]
  viability, T/C: 103%
[34]
  viability, T/C: 98.6%
[35]
  viability, T/C: 108%
[36]
  viability, T/C: 86.4%

Reference: PubChem BioAssay AID1963832 (Molecular Pharmacology Branch, DTP, NCI, 2024)
